Reference: patent US9365583B2, “Substituted pyrazoles and uses thereof” (Genentech, Inc., priority 2013, dated 2016)

The compounds below were run against T1, N-terminally GST-tagged DLK (catalytic domain amino acid 1-520) (Homo sapiens, UniProt Q12852) (assay: DLK TR-FRET inhibition assay). Settings: 5 nM GST-DLK, 40 nM HIS-MKK4 K131M substrate, 30 μM ATP, 60 minutes at ambient temperature.
T1 construct: N-terminally GST-tagged DLK (catalytic domain amino acid 1-520); purchased Carna Bioscience
T1 sequence (Q12852 1-520): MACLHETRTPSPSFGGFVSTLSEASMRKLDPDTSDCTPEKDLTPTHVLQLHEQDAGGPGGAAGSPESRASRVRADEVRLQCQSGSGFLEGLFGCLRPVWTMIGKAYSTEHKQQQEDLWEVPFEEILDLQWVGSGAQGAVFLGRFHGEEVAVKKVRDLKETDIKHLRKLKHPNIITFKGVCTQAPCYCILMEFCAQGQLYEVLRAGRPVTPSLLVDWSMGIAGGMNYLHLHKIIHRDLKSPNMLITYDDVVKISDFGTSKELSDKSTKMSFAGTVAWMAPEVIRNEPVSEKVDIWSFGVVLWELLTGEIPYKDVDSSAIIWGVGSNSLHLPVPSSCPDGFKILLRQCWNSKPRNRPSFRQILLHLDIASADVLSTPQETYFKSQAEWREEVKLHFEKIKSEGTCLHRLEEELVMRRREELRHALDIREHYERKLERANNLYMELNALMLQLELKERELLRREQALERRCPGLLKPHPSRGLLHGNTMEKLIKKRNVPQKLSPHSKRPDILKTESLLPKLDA
Type: biochemical
In short: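 Phosphorylated MKK4 was quantified by TR-FRET (Eu-labelled anti-phospho-MKK4, D2 anti-HIS; 3 h, 665 and 615 nm emission) after EDTA quench. Reactions held 5 nM GST-tagged DLK catalytic domain (1-520), 40 nM HIS-MKK4 K131M substrate, 30 μM ATP and compound (3-fold series from 20 uM), 60 min, room temperature, pH 7.5.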

| SMILES | Ki |
| --- | --- |
| CC(C)n1nc(-c2cnc(N)c(C(F)(F)F)c2)cc1[C@H]1[C@@H]2C[C@H](N3CCN(CC(F)F)CC3)C[C@@H]21 [compound 265, 5-(5-((1R,3r,5S,6r)-3-(4-(2,2-difluoroethyl)piperazin-1-yl)bicyclo[3.1.0]hexan-6-yl)-1-isopropyl-1H-pyrazol-3-yl)-3-(trifluoromethyl)pyridin-2-amine] | 2.5 nM |
| CC(C)n1nc(-c2cnc(N)c(C(F)(F)F)c2)cc1[C@H]1[C@@H]2C[C@@H](N3CCN(CC(F)F)CC3)C[C@@H]21 [compound 266] | 1.1 nM |
| Nc1ncc(-c2cc([C@H]3[C@@H]4C[C@H](N5CCOCC5)C[C@@H]43)nn2CC2CC2)cc1OC(F)F [compound 267, 5-(1-(cyclopropylmethyl)-3-((1R,3r,5S,6r)-3-morpholinobicyclo [3.1.0]hexan-6-yl)-1H-pyrazol-5-yl)-3-(difluoromethoxy) pyridin-2-amine] | 220 nM |
| Nc1ncc(-c2cc([C@H]3[C@@H]4C[C@@H](N5CCOCC5)C[C@@H]43)nn2CC2CC2)cc1OC(F)F [compound 268, 5-(1-(cyclopropylmethyl)-3-((1R,3s,5S,6r)-3-morpholinobicyclo [3.1.0]hexan-6-yl)-1H-pyrazol-5-yl)-3-(difluoromethoxy) pyridin-2-amine] | 221 nM |
| CC(C)n1nc(-c2cnc(N)c(C(F)(F)F)c2)cc1[C@H]1[C@@H]2C[C@H](N)C[C@@H]21 [compound 269, 5-(5-((1R,3r,5S,6r)-3-amino-bicyclo[3.1.0]hexan-6-yl)-1-isopropyl-1H-pyrazol-3-yl)-3-(trifluoro-methyl)pyridin-2-amine] | 4.1 nM |
| CC(C)n1nc(-c2cnc(N)c(OC(F)F)c2)cc1[C@H]1[C@@H]2C[C@H](N3CC4CC(C3)O4)C[C@@H]21 [compound 271, 5-(5-((1R,3r,5S,6r)-3-(6-oxa-3-azabicyclo[3.1.1]heptan-3-yl)bicyclo[3.1.0]hexan-6-yl)-1-iso-propyl-1H-pyrazol-3-yl)-3-(difluoro-methoxy)pyridin-2-amine] | 2.6 nM |
| COCCO[C@H]1C[C@@H]2[C@H](C1)[C@H]2c1cc(-c2cnc(N)c(C(F)(F)F)c2)nn1C(C)C [compound 272, 5-(1-isopropyl-5-((1R,3r,5S,6r)-3-(2-methoxyethoxy)bicyclo [3.1.0]hexan-6-yl)-1H-pyrazol-3-yl)-3-(trifluoromethyl)pyridin-2-amine] | 5.6 nM |
| Nc1ncc(-c2cc([C@H]3[C@@H]4C[C@H](N5CCOCC5)C[C@@H]43)n(CC3CC3)n2)cc1C(F)(F)F [compound 273, 5-(1-(cyclopropylmethyl)-5-((1R,3r,5S,6r)-3-morpholinobicyclo [3.1.0]hexan-6-yl)-1H-pyrazol-3-yl)-3-(trifluoromethyl)pyridin-2-amine] | 1.3 nM |
| Nc1ncc(-c2cc([C@H]3[C@@H]4C[C@H](N5CCOCC5)C[C@@H]43)n(CC3CC3)n2)cc1OC(F)F [compound 274, 5-(1-(cyclopropylmethyl)-5-((1R,3r,5S,6r)-3-morpholinobicyclo [3.1.0]hexan-6-yl)-1H-pyrazol-3-yl)-3-(difluoromethoxy)pyridin-2-amine] | 1.3 nM |
| COCCO[C@@H]1C[C@@H]2[C@H](C1)[C@H]2c1cc(-c2cnc(N)c(C(F)(F)F)c2)nn1C(C)C [compound 275, 5-(1-isopropyl-5-((1R,3s,5S,6r)-3-(2-methoxyethoxy)bicyclo [3.1.0]hexan-6-yl)-1H-pyrazol-3-yl)-3-(trifluoromethyl)pyridin-2-amine] | 4.7 nM |
| CC(C)n1nc(-c2cnc(N)c(C(F)(F)F)c2)cc1[C@H]1[C@@H]2C[C@@H](N)C[C@@H]21 [compound 276, 5-(5-((1R,3s,5S,6r)-3-aminobicyclo [3.1.0]hexan-6-yl)-1-isopropyl-1H-pyrazol-3-yl)-3-(trifluoro-methyl)pyridin-2-amine] | 1.8 nM |
| CC(C)n1nc(-c2cnc(N)c(OC(F)F)c2)cc1[C@H]1[C@@H]2C[C@@H](N3CC4CC(C3)O4)C[C@@H]21 [compound 278, 5-(5-((1R,3s,5S,6r)-3-(6-oxa-3-azabicyclo[3.1.1]heptan-3-yl)bicyclo[3.1.0]hexan-6-yl)-1-isopropyl-1H-pyrazol-3-yl)-3-(difluoromethoxy)pyridin-2-amine] | 1.4 nM |
| Nc1ncc(-c2cc([C@H]3[C@@H]4C[C@@H](N5CCOCC5)C[C@@H]43)n(CC3CC3)n2)cc1OC(F)F [compound 279, 5-(1-(cyclopropylmethyl)-5-((1R,3s,5S,6r)-3-morpholinobicyclo [3.1.0]hexan-6-yl)-1H-pyrazol-3-yl)-3-(difluoromethoxy)pyridin-2-amine] | 1.6 nM |
| Nc1ncc(-c2cc([C@H]3[C@@H]4C[C@@H](N5CCOCC5)C[C@@H]43)n(CC3CC3)n2)cc1C(F)(F)F [compound 280, 5-(1-(cyclopropylmethyl)-5-((1R,3s,5S,6r)-3-morpholinobicyclo [3.1.0]hexan-6-yl)-1H-pyrazol-3-yl)-3-(trifluoromethyl)pyridin-2-amine] | 1.1 nM |
| CC(C)n1nc(-c2cnc(N)c(CC(F)(F)F)c2)cc1[C@H]1[C@@H]2C[C@@H](N3CCOCC3)C[C@@H]21 [compound 281, 5-(1-isopropyl-5-((1R,3s,5S,6r)-3-morpholinobicyclo[3.1.0]hexan-6-yl)-1H-pyrazol-3-yl)-3-(2,2,2-trifluoroethyl)pyridin-2-amine] | 18.4 nM |
| CC(C)n1nc(-c2cnc(N)c(OC(F)(F)F)c2)cc1[C@H]1[C@@H]2C[C@H](NCC(F)F)C[C@@H]21 [compound 282, 5-(5-((1R,3r,5S,6r)-3-((2,2-difluoroethyl)amino)bicyclo[3.1.0]hexan-6-yl)-1-isopropyl-1H-pyrazol-3-yl)-3-(trifluoromethoxy) pyridin-2-amine] | 7.7 nM |
| Nc1ncc(-c2cc([C@@H]3[C@@H]4C[C@H](N5CCOCC5)C[C@@H]43)n(CC3CC3)n2)cc1OC(F)(F)F [compound 283, 5-(1-(cyclopropylmethyl)-5-((1R,3r,5S,6s)-3-morpholinobicyclo [3.1.0]hexan-6-yl)-1H-pyrazol-3-yl)-3-(tritluoromethoxy) pyridin-2-amine] | 209 nM |
| COCCN(C)[C@H]1C[C@@H]2[C@H](C1)[C@H]2c1cc(-c2cnc(N)c(C(F)(F)F)c2)nn1C(C)C [compound 284, 5-(1-isopropyl-5-((1R,3r,5S,6r)-3-((2-methoxyethyl)(methyl)amino)bicyclo[3.l.0]hexan-6-yl)-1H-pyrazol-3-yl)-3-(trifluoromethyl) pyridin-2-amine] | 5.7 nM |
| CC(C)n1nc(-c2cnc(N)c(OC(F)F)c2)cc1[C@H]1[C@@H]2C[C@H](N3CC[C@H](F)C3)C[C@@H]21 [compound 285, 3-(difluoromethoxy)-5-(5-((1R,3r,5S,6S)-3-((S)-3-fluoropyrrolidin-1-yl)bicyclo[3.1.0]hexan-6-yl)-1-isopropyl-1H-pyrazol-3-yl) pyridin-2-amine] | 4.3 nM |
| CO[C@H]1CCCN([C@H]2C[C@@H]3[C@H](C2)[C@H]3c2cc(-c3cnc(N)c(C(F)(F)F)c3)nn2C(C)C)C1 [compound 286, 5-(1-isopropyl-5-((1R,3r,5S,6S)-3-((S)-3-methoxypiperidin-1-yl)bicyclo[3.1.0]hexan-6-yl)-1H-pyrazol-3-yl)-3-(trifluoromethyl) pyridin-2-amine] | 3.4 nM |
| CC(C)n1nc(-c2cnc(N)c(C(F)(F)F)c2)cc1[C@H]1[C@@H]2C[C@H](OC3COC3)C[C@@H]21 [compound 287, 5-(1-isopropyl-5-((1R,3r,5S,6r)-3-(oxetan-3-yloxy)bicyclo[3.1.0]hexan-6-yl)-1H-pyrazol-3-yl)-3-(trifluoromethyl)pyridin-2-amine] | 6.3 nM |
| CC(C)n1nc(-c2cnc(N)c(OC(F)(F)F)c2)cc1[C@H]1[C@@H]2C[C@@H](NCC(F)F)C[C@@H]21 [compound 288, 5-(5-((1R,3s,5S,6r)-3-((2,2-udifloroethyl)amino)bicyclo[3.1.0]hexan-6-yl)-1-isopropyl-1H-pyrazol-3-yl)-3-(tritluoromethoxy) pyridin-2-amine] | 6.3 nM |
| CC(C)n1nc(-c2cnc(N)c(OC(F)F)c2)cc1[C@H]1[C@@H]2C[C@@H](N3CC[C@H](F)C3)C[C@@H]21 [compound 289, 3-(difluoromethoxy)-5-(5-((1R,3s,5S,6S)-3-((S)-3-fluoropyrrolidin-1-yl)bicyclo[3.1.0]hexan-6-yl)-1-isopropyl-1H-pyrazol-3-yl) pyridin-2-amine] | 4.4 nM |
| CO[C@H]1CCCN([C@@H]2C[C@@H]3[C@H](C2)[C@H]3c2cc(-c3cnc(N)c(C(F)(F)F)c3)nn2C(C)C)C1 [compound 290, 5-(1-isopropyl-5-((1R,3s,5S,6S)-3-((S)-3-methoxypiperidin-1-yl)bicyclo[3.1.0]hexan-6-yl)-1H-pyrazol-3-yl)-3-(trifluoromethyl) pyridin-2-amine] | 7.7 nM |
